The record followed here is publication PMC10224329, “Design, Synthesis, and Antiproliferative Activity of Benzopyran-4-One-Isoxazole Hybrid Compounds” (Molecules, 2023).

The target of experiment [1] is T1, EGFR (Homo sapiens, UniProt P00533).
T1 construct: purchased Reaction Biology Corporation
The experiment in a line: Protein kinase assay (Reaction Biology). To be noted: duplicate, 200 μM ATP, read-out: % Enzyme Activity (Relative to DMSO Controls) EGFR. The format is biochemical. Here is the method:
(§1) Therefore, selected compound 5a was screened against several protein kinases to explore the potential of these hybrid compounds as kinase inhibitors. The screening of compound 5a was performed on a panel of 9 kinases, viz., ABL1, c-Kit, c-Src, CDK2/cyclin A1, CSK, EGFR, mTOR/FRAP1, p38a/MAPK14, PKCa, and PI3K, at a dose of 20 μM. The respective positive controls were used for each kinase, and the kinase reaction was performed at 200 μM ATP concentration for all the kinases except for PI3K, which was performed at 10 µM ATP (Table 2). […] It appeared that compound 5a containing a 3-position substitution with an isoxazole ring and a 4-position with a carbonyl group has a detrimental effect on kinase inhibition. Previously 3-substituted benzopyran compound with a short alkyl chain of urea (NH-CO-NH-Et/Me/iPr) was reported with Abl kinase inhibitory activity in the range of 4–27 μM [36]. […] Due to prominent antiproliferative activity, these compounds may have some other targets for anticancer activity.
(§2) Compound 5a was tested at a single dose of 20 μM against 9 kinases, viz., Abl1, c-Kit, c-Src, CDK2/cyclin A1, CSK, EGFR, mTOR/FRAP1, p38a/MAPK14, PKCa, and PI3K using our previously reported protocol in duplicate by Reaction Biology Corporation. The respective positive controls, e.g., staurosporine for all the kinases, except SB202190 for P38a/MAP14 and P1-103 for mTOR/FRAP1, were used, and the kinase reaction was performed at 200 μM ATP concentration for all the kinases except for PI3K, which was performed at 10 µM ATP.

The target in experiment [2] is T2, ABL1 (Homo sapiens, UniProt P00519).
T2 construct: purchased Reaction Biology Corporation
T2 sequence (P00519 whole entry): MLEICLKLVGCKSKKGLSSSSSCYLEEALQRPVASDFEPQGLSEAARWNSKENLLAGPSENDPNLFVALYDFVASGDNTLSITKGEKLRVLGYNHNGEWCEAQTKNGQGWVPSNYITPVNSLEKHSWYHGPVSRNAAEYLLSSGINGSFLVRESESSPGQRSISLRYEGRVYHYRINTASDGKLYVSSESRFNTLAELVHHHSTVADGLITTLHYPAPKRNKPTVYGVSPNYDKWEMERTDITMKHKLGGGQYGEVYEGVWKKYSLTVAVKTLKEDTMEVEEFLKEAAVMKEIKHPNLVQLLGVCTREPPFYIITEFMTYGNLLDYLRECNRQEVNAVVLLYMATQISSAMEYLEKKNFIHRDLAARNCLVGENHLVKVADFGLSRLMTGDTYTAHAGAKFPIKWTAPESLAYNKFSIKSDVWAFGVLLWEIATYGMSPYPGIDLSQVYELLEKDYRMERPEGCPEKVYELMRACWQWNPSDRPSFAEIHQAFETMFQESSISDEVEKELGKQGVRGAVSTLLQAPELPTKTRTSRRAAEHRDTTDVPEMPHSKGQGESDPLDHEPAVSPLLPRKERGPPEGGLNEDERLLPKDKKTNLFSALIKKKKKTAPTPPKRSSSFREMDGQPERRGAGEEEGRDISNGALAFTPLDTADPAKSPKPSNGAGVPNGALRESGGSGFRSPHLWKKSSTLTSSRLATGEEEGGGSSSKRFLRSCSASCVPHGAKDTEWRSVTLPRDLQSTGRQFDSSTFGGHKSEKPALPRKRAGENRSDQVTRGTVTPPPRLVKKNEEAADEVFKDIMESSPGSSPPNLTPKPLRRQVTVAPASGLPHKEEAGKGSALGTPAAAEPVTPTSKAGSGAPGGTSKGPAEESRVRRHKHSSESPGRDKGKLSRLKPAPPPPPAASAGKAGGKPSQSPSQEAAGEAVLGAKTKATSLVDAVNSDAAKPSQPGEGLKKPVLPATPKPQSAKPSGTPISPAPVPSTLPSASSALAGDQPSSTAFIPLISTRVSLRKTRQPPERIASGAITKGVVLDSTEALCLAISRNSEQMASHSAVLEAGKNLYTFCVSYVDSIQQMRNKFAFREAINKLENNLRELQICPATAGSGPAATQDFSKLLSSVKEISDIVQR
The experiment is described as follows: Protein kinase assay (Reaction Biology). The format is biochemical. The settings on record: duplicate, 200 μM ATP, read-out: % Enzyme Activity (Relative to DMSO Controls) ABL1. Here is the method:
as §1, §2

In experiment [3] the target is T3, c-Kit (Homo sapiens, UniProt P10721).
T3 construct: purchased Reaction Biology Corporation
The experiment is described as follows: Protein kinase assay (Reaction Biology). The experiment is classed as biochemical. To be noted: duplicate, 200 μM ATP, read-out: % Enzyme Activity (Relative to DMSO Controls) c-Kit. Here is the method: as §1, §2

Experiment [4] deals with T4, PI3K (p110a/p65a) (Homo sapiens, UniProt P42336).
T4 construct: purchased Reaction Biology Corporation
T4 sequence (P42336 whole entry): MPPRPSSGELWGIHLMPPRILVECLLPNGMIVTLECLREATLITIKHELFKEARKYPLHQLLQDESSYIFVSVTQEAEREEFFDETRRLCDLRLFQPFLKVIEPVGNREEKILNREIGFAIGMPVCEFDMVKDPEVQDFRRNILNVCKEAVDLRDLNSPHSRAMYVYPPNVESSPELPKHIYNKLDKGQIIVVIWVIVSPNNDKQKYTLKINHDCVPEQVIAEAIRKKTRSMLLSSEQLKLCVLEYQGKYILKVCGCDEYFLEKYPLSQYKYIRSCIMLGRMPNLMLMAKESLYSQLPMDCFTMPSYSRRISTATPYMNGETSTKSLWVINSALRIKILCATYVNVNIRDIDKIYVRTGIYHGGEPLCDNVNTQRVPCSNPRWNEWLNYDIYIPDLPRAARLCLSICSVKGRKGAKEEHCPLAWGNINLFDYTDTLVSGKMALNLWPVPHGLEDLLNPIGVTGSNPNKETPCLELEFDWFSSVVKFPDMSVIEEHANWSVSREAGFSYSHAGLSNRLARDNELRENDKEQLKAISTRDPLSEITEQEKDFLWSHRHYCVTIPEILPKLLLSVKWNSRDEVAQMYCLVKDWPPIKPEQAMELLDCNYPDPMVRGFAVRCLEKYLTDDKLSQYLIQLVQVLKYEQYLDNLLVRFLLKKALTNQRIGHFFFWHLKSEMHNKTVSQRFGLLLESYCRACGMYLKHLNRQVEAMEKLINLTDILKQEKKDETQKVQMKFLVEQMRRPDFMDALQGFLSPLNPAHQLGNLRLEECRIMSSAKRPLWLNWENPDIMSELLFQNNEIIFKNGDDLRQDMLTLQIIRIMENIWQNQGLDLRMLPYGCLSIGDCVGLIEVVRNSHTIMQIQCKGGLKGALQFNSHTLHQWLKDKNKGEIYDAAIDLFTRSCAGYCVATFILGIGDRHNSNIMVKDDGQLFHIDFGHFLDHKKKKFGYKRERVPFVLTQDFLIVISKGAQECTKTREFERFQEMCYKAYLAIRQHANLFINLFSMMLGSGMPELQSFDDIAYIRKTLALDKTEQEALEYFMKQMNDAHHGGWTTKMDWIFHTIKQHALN
The experiment in a line: Protein kinase assay (Reaction Biology). The settings on record: duplicate, 10 µM ATP, read-out: % Enzyme Activity (Relative to DMSO Controls) PI3K (p110a/p65a). The format is biochemical. Here is the method:
as §1, §2

Experiment [5] has as its target T5, p38a/MAPK14 (Homo sapiens, UniProt Q16539).
T5 construct: purchased Reaction Biology Corporation
The experiment in a line: Protein kinase assay (Reaction Biology). To be noted: duplicate, 200 μM ATP, read-out: % Enzyme Activity (Relative to DMSO Controls) p38a/MAPK14. The format is biochemical. Here is the method:
as §1, §2

Experiment [6] deals with T6, CSK (Homo sapiens, UniProt P41240).
T6 construct: purchased Reaction Biology Corporation
The experiment in a line: Protein kinase assay (Reaction Biology). The experiment is classed as biochemical. The settings on record: duplicate, 200 μM ATP, read-out: % Enzyme Activity (Relative to DMSO Controls) CSK. Here is the method: as §1, §2

In experiment [7] the target is T7, mTOR/FRAP1 (Homo sapiens, UniProt P42345).
T7 construct: purchased Reaction Biology Corporation
The experiment in a line: Protein kinase assay (Reaction Biology). The format is biochemical. To be noted: duplicate, 200 μM ATP, read-out: % Enzyme Activity (Relative to DMSO Controls) mTOR/FRAP1. Here is the method:
as §1, §2

Experiment [8] deals with T8, c-Src (Homo sapiens, UniProt P12931).
T8 construct: purchased Reaction Biology Corporation
T8 sequence (P12931 whole entry): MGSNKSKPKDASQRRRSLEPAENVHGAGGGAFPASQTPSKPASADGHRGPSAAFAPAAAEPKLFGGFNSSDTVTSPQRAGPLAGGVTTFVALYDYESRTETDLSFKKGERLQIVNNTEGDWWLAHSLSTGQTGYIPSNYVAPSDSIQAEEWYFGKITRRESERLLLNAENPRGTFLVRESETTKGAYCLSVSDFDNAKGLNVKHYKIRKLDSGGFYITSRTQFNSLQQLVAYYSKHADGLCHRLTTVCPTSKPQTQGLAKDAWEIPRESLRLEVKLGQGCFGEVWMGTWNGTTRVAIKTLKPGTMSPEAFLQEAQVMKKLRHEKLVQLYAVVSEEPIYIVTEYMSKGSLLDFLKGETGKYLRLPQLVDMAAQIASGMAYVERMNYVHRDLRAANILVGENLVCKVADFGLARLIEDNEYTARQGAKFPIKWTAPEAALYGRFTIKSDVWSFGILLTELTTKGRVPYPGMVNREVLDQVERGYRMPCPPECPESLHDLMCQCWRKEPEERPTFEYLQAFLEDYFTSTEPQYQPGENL
The experiment is described as follows: Protein kinase assay (Reaction Biology). The format is biochemical. The settings on record: duplicate, 200 μM ATP, read-out: % Enzyme Activity (Relative to DMSO Controls) c-Src. Here is the method: as §1, §2

The target of experiment [9] is T9, CDK2/cyclin A1 (Homo sapiens, UniProt P24941).
T9 construct: purchased Reaction Biology Corporation
The experiment in a line: Protein kinase assay (Reaction Biology). The experiment is classed as biochemical. To be noted: duplicate, 200 μM ATP, read-out: % Enzyme Activity (Relative to DMSO Controls) CDK2/cyclin A1. Here is the method:
as §1, §2

In experiment [10] the target is T10, PKCa (Homo sapiens, UniProt P17252).
T10 construct: purchased Reaction Biology Corporation
The experiment is described as follows: Protein kinase assay (Reaction Biology). The experiment is classed as biochemical. To be noted: duplicate, 200 μM ATP, read-out: % Enzyme Activity (Relative to DMSO Controls) PKCa. Here is the method:
as §1, §2

Experiment [11] deals with MDA-MB-231 cells. The experiment in a line: Annexin V-FITC/PI apoptosis assay by flow cytometry. The format is cell-based, human. Here is the method:
In accordance with the MTS assay, compound 5a had promising antiproliferative action. Therefore, we attempted to study the mechanism triggering cell death. […] MDA-MB-231 cells were treated with 5 μM of compound 5a and Dox (5 μM) as a positive control and incubated for 72 h, then double-stained carefully by membrane-linked protein Annexin-V fluorescein isothiocyanate (FITC) and propidium iodide (PI) for flow cytometry analysis. Normally, in the early stages of apoptosis, phosphatidylserine flips from the inner cell membrane to the surface of the cell membrane. […] PI is a nucleic acid dye that can only cross the membrane of advanced apoptosis and necrotic cells and redden the nucleus. Consequently, when the treated cells are double stained by the two fluorescent dyes, early and late apoptosis and necrotic cells can be clearly distinguished. […] These findings illustrated that compound 5a mainly leads to the early apoptosis of MDA-MB-231 cells.
The assay was detected using a commercially available kit (FITC Annexin V Apoptosis Detection Kit II, BD Biosciences, San Jose, CA, USA) per the manufacturer’s instructions. Briefly, MDA-MB-231 cells were seeded in 6-well plates at a concentration of 1 × 10^6 cells/well for 24 h; after that, cells were treated with 5a (5 µM) for 72 h. Dox (5 µM) was used as a positive control. After the treatment period, cells were washed with cold phosphate-buffered saline (PBS) twice. The cells were collected after trypsin treatment and centrifugated to get a pellet, and a binding buffer (1X) was used to resuspend the cells. Annexin V (5 μL) and propidium iodide (PI) (5 μL) were mixed with 100 μL of the suspended cells (1 × 10^6 cells/mL), followed by 15 min incubation at room temperature in the dark. The mixture was diluted by adding 400 μL of 1× binding buffer, and the cells were analyzed using flow cytometry, FACS Verse (BD Biosciences, USA). The experiment was repeated three times independently.
A general note: In flow cytometry, cells or beads pass a laser one at a time.

T5 sequence (Q16539 whole entry): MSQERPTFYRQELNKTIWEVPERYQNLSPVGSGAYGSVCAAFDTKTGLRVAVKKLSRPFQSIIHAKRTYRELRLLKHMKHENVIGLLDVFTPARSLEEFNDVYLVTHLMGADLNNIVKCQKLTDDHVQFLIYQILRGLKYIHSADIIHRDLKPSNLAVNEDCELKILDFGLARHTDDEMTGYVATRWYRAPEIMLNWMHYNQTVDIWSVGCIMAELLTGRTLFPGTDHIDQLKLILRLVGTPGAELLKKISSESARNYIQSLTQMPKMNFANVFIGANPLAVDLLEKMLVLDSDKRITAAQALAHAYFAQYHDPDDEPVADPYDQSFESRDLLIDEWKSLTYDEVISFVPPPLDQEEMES
T1 sequence (P00533 25-1210): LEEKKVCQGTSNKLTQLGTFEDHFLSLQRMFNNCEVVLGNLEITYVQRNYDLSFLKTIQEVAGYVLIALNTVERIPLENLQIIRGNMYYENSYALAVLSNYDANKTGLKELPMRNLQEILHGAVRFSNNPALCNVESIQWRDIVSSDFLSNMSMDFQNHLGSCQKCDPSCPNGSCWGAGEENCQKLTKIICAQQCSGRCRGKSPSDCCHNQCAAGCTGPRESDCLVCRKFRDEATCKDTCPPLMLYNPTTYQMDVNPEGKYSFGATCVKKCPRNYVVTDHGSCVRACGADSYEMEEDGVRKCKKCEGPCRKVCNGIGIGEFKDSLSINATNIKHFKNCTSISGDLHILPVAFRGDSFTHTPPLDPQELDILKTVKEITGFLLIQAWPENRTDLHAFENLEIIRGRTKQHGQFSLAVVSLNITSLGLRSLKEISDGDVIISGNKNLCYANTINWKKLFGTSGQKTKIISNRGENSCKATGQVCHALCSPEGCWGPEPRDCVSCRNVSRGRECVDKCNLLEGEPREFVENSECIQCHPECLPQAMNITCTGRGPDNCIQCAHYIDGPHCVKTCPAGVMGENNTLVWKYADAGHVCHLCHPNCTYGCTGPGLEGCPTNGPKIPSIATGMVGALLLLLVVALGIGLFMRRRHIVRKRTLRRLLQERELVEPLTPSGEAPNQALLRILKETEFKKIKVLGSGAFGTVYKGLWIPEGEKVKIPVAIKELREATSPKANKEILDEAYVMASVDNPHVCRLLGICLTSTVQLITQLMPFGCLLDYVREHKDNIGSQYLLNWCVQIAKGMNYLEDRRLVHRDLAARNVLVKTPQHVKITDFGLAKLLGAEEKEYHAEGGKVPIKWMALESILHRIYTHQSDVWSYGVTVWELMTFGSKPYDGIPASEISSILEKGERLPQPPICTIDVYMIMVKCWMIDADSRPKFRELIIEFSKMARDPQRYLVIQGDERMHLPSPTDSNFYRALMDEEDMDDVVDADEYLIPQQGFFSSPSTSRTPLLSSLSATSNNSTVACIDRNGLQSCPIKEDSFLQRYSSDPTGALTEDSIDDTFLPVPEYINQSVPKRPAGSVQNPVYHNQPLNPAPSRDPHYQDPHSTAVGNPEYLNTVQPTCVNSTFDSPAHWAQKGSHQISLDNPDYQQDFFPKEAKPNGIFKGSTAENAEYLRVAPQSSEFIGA

`Cc1noc(C)c1C(=O)OCc1coc2ccccc2c1=O` [Compound 5a, (4-Oxo-4H-1-benzopyran-3-yl)methyl 3,5-dimethylisoxazole-4-carboxylate]: the remaining activity at 20 µM in [1] came to 99.8%; in experiment [2] it was 96.9%; in experiment [3], 95.3%; in [4] it was 110%; in [5], 83.1%; in experiment [6], 93%. Moreover, the remaining activity at 20 µM in experiment [7] is 112%; in experiment [8], 113%; in [9] it was 105%; in experiment [10], 103%. Besides, the “induced apoptosis in MDA-MB-231” value in experiment [11] (5 μM concentration, compared to untreated cells) is 50.8%. For the same compound, in experiment [11] (MDA-MB-231, 5 μM, 72 h), the “Early Apoptosis” value worked out at 47.52%. Besides, in experiment [11] (MDA-MB-231, 5 μM, 72 h), the “Late Apoptosis” value turned out to be 3.28%.
